# The source made the active and inactive calls.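 How the source made its calls: active means tumour findings in long-term animal cancer tests in more than one sex, species or organ; inactive means no tumour finding and more than one negative test.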
# Test: DSSTox (CPDBAS) Carcinogenic Potency Database Summary MultiCellCall Results
# Settings: animal carcinogenicity bioassays, multi-cell call summary
# Excerpt: The Carcinogenic Potency Database (CPDB) is a unique and widely used international resource of the results of over 6500 chronic, long-term animal cancer tests on over 1500 chemical substances. The CPDB provides easy access to the bioassay literature, with qualitative and quantitative analyses of both positive and negative experiments that have been published over the past 50 years in the general literature and by the National Cancer Institute/National Toxicology Program. The CPDB standardizes the diverse literature of cancer bioassays that vary widely in protocol, histopathological examination and nomenclature, and in the published author's choices of what information to provide in their papers. Results are reported in the CPDB for tests in rats, mice, hamsters, dogs, and nonhuman primates, and are based on the most positive result among all experiments for each sex-species. The DSSTox CPDBAS (all species) file incorporates data from the CPDB Summary Tables for the full list of over 1500 chemical substances tested in at least one species. A summary MultiCellCall, based on experimental bioassay results of one or more species, is provided in the DSSTox CPDBAS file (see Source URL) for more than 1150 chemical substances.
# Associated TD50 values and tumor site details for the relevant species/sex experiment supporting the overall CPDBAS MultiSiteCall are provided in the full DSSTox CPDBAS file (see Comment) and the corresponding CPDBAS Species Bioassay in PubChem. ActivityScore is computed as follows: multispecies=50, multisex=30, multisite=20, with combination scores computed as sums of these values, e.g. multispecies+multisite=70.
row,Structure (SMILES),outcome
1,Cc1c([N+](=O)[O-])c(C)c([N+](=O)[O-])c(C(C)(C)C)c1[N+](=O)[O-],active; multisite active; multisex active
2,Cc1ccc(N)cc1Cl,inactive; multisex inactive; multispecies inactive
3,CC(=O)C(N=Nc1ccc(-c2ccc(N=NC(C(C)=O)C(=O)Nc3ccccc3)c(Cl)c2)cc1Cl)C(=O)Nc1ccccc1 (stereo not drawn),inactive; multisex inactive; multispecies inactive
4,ClCc1cccnc1,active; multisex active; multispecies active
5,Cc1cnc2ccc3c(nc(N)n3C)c2n1,active; multisite active; multisex active; multispecies active
6,CC(=O)CN(C)N=O,active; multisite active; multisex active
7,CCOc1nc2cccc(C(=O)OC(C)OC(=O)OC3CCCCC3)c2n1Cc1ccc(-c2ccccc2-c2nn[nH]n2)cc1 (stereo not drawn),inactive; multisex inactive
8,C1C2OC2C2C1C1CC2C2OC12 (stereo not drawn),inactive; multisex inactive; multispecies inactive
9,CC1CO1 (stereo not drawn),active; multisite active; multisex active; multispecies active
10,CS(=O)(=O)OCCCNCCCOS(C)(=O)=O,inactive; multisex inactive; multispecies inactive
11,Nc1ccc(/C=C/c2ccc(N)cc2S(=O)(=O)O)c(S(=O)(=O)O)c1,inactive; multisex inactive; multispecies inactive
12,CNc1ncnc2c1ncn2[C@@H]1O[C@H](CO)[C@@H](O)[C@H]1O,inactive; multisex inactive
13,CCN(C#N)N=O,active; multisex active
14,NNC(=O)c1ccncc1,active; multisite active; multisex active; multispecies active
15,c1ccc2sc(SN3CCOCC3)nc2c1,inactive; multisex inactive
16,CC(=O)Nc1ccc(S(=O)(=O)O)c2cc(S(=O)(=O)O)c(N=Nc3ccc(N=Nc4ccc(S(=O)(=O)O)cc4)c4ccc(S(=O)(=O)O)cc34)c(O)c12,inactive; multisex inactive; multispecies inactive
17,NNC(=O)c1ccccc1,active; multisite active; multisex active
18,O.O.O.O.O.O.O.O.O=S(=O)([O-])[O-].O=S(=O)([O-])[O-].O=S(=O)([O-])[O-].[Cd+2].[Cd+2].[Cd+2],inactive; multispecies inactive
19,O=C1C(O)N=C(c2ccccc2F)c2cc(Cl)ccc2N1CCO (stereo not drawn),inactive; multisex inactive
20,CN(C)CCN(Cc1cccs1)c1ccccn1,active; multisex active
21,O=CNNC=O,active; multisex active
22,Oc1ccccc1-c1ccccc1,active; multisite active; multisex active
23,C/[N+]([O-])=N/CO[C@@H]1O[C@H](CO)[C@@H](O)[C@H](O)[C@H]1O,active; multisite active; multispecies active

row,Structure (SMILES),outcome
1,NNc1ccc(C(=O)O)cc1,active; multisex active
2,CCN=[N+]([O-])CC,active; multisite active
3,COc1ccc(C(=O)/C(Br)=C\C(=O)O)cc1,active; multisite active; multisex active
4,C=CC(=O)OCC,active; multisex active; multispecies active
5,OB(O)O,inactive; multisex inactive
6,CC(C)CON=O,active; multisex active; multispecies active
7,Nc1ccc(N=Nc2ccccc2)c(N)n1,active; multisite active; multisex active; multispecies active
8,Cc1cc(O)c2c(c1O)C(=O)C13C(=C2O)C(=O)C2C(O)C1C1C(O)C3C(=O)C3=C(O)c4c(O)cc(C)c(O)c4C(=O)C321 (stereo not drawn),active; multisex active
9,Cc1cc(=O)n(-c2ccccc2)n1C,active; multisite active
10,Cc1ccc(N=Nc2c(O)c(S(=O)(=O)O)cc3ccc(S(=O)(=O)O)cc23)c(C)c1,active; multisex active; multispecies active
11,NC(=S)Nc1ccccc1,inactive; multisex inactive; multispecies inactive
12,C=C1C[C@]23C[C@@]1(O)CC[C@H]2[C@@]12C=C[C@H](O)[C@@](C)(C(=O)O1)[C@H]2[C@@H]3C(=O)O,inactive; multisex inactive
13,C=C/C1=C/[C@H](C)[C@](C)(OC(C)=O)C(=O)OCC2=CC[N+]3(C)CC[C@@H](OC1=O)C23[O-] (stereo partly drawn),active; multisite active
14,COc1cc(/C=C/C(=O)CC(=O)/C=C/c2ccc(O)c(OC)c2)ccc1O,inactive; multisex inactive; multispecies inactive
15,O=S(=O)(O)c1ccc(N=Nc2c(O)ccc3cc(S(=O)(=O)O)ccc23)cc1,inactive; multisex inactive; multispecies inactive
16,O.O.O.O.O.O.O=S(=O)([O-])[O-].[Ni+2],inactive; multisex inactive; multispecies inactive
17,O=CCBr,inactive; multisex inactive
18,CN(N=O)C1=Nc2ccc(Cl)cc2C(c2ccccc2)=[N+]([O-])C1,inactive; multisex inactive
19,CC(C)=CCl,active; multisite active; multisex active; multispecies active
20,CCCCOC(=O)COc1ccc(Cl)cc1Cl,inactive; multisex inactive
21,Nc1nnc(-c2ccc([N+](=O)[O-])o2)o1,active; multisite active
22,CCn1c2ccccc2c2cc(N)ccc21,active; multisite active; multisex active; multispecies active
23,Cc1nnc2n1-c1sc(CCc3ccc(CC(C)C)cc3)cc1C(c1ccccc1Cl)=NC2C (stereo not drawn),inactive; multisex inactive

row,Structure (SMILES),outcome
1,O=NN1CCCC1c1ccc[n+]([O-])c1 (stereo not drawn),active; multisite active; multisex active
2,CC(O)CN(CC(C)O)N=O (stereo not drawn),active; multisite active; multisex active
3,CC(C)=CCC/C(C)=C/C=O,inactive; multisex inactive; multispecies inactive
4,Cc1c(-c2cnccn2)ssc1=S,inactive; multisex inactive
5,Cc1c(N)cccc1N,inactive; multisex inactive; multispecies inactive
6,CCC(O)OC(O)CC (stereo not drawn),inactive; multisex inactive; multispecies inactive
7,C[C@]12C/C(=C/O)C(=O)C[C@@H]1CC[C@@H]1[C@@H]2CC[C@@]2(C)[C@H]1CC[C@]2(C)O,active; multisite active
8,Nc1ccc(Cl)cc1N,active; multisite active; multisex active; multispecies active
9,ClC(Cl)=C(Cl)Cl,active; multisite active; multisex active; multispecies active
10,Cc1cc2ncccc2c2nc(N)n(C)c12,active; multisite active; multisex active
11,O=[N+]([O-])c1ccc2c3c(cccc13)CC2,active; multisite active; multisex active; multispecies active
12,CC(Cl)CCl (stereo not drawn),active; multisex active
13,CC1(C)[C@H](C(=O)O[C@H](C#N)c2cccc(Oc3ccccc3)c2)[C@@H]1C=C(Br)Br,inactive; multisex inactive; multispecies inactive
14,NS(=O)(=O)c1cc2c(cc1Cl)NCNS2(=O)=O,inactive; multisex inactive; multispecies inactive
15,CC(C)(CCCOc1ccc(OCCCC(C)(C)C(=O)O)c(-c2ccccc2)c1)C(=O)O,active; multisex active
16,COc1cc(-c2ccc(N)c(OC)c2)ccc1N,active; multisite active; multisex active; multispecies active
17,CCCCCCCCCCN(C)N=O,active; multisite active
18,Cc1ncc([N+](=O)[O-])n1CCO,active; multisite active; multisex active; multispecies active
19,CCCNN,active; multisex active
20,O=C1c2ccccc2C(=O)N1SC(Cl)(Cl)Cl,active; multisite active; multisex active
21,Nc1ccc2ccccc2c1S(=O)(=O)O,inactive; multisex inactive
22,ClC#CCl,active; multisite active; multisex active; multispecies active

# From PubChem BioAssay AID1205 (EPA DSSTox, 2008)
